Measurements from patent US20250064801A1, “USE OF 5-AMINO-2,3-DIHYDRO-1,4-PHTHALAZINEDIONE IN THE TREATMENT OF CONGENITAL MUSCULAR DYSTROPHIES” (METROPHARM AG, priority 2022, published 2025).

How the values were obtained:
[1] = system: musculus extensor digitorum longus (EDL) muscle in the mdx mouse; assay: Contractile properties (maximum force) of the musculus extensor digitorum longus measured in vitro at end of treatment of mdx mice; type: in vivo
From the text: The mdx mouse model is the most widely used and investigated animal model in the research of Duchenne muscular dystrophy since the early 1980ies. These mice are characterized by muscle weakness, histological evidence of myopathy and elevated serum levels of creatin kinase (CK) (cf. Bulfield et al. (1984) PNAS 81: 1189-1192). Herein, CK levels are a marker of the breakdown of CK-rich tissues such as skeletal muscles (rhabdomyolysis). The mutation in the mdx mouse is a nonsense mutation (C-to-T transition) in exon 23 that aborts full-length dystrophin expression (cf. Sicinski et al. (1989) Science 244: 1578-1580). Symptoms are moderate and the mean lifespan is reduced by about 25%. During the first two weeks after birth mdx mice are indistinguishable from wild-type mice. Then skeletal muscle necrosis starts until week 6 after birth and thereupon enters in a plateau phase characterized by muscle hypertrophy. […] Many aged mdx mice develop spontaneous sarcoma.
Mice were identified by ear tags. […] These cages were assigned randomly to treatment groups. Animals were monitored daily for changes in behavior.
The experiments were carried out by AGADA Biosciences (Halifax, Canada) on behalf of the applicant. All treatment substances were provided by the applicant. All treatment groups started with 15 mice. Treatment was blinded.
Contractile properties were measured in vitro on the right musculus extensor digitorum longus (EDL) at the end of the study. The mice were anesthetized using ketamine and xylamine. The EDL muscle of the right hindlimb was removed from each mouse and immersed in individual carbogenated baths (95% O2, 5% CO2) containing Ringer's solution (pH 7.4) at 25° C. The muscle was flanked by two electrodes. Using non-fatiguing twitches, the muscle was maintained at 10 mN for force generation. The maximal force was measured with the muscle held at 10 mN. The muscle was stimulated with an electrode to elicit tetanic contractions that are separated by 2-minute rest intervals. […] This plateau was considered the maximum force (mN) generated by the muscle. The cross-sectional area of the muscle was measured based on muscle mass, muscle length, and tissue density. Finally, the muscle specific force (kN/m^2) was calculated based on the cross-sectional area of the muscle and was converted in relation to the individual body weight ([…]).

[2] = Body weight of mdx mice measured weekly over the treatment period; settings: 1.0 mg/kg (prednisolone oral syrup, deflazacort IP)
Method: Animals were received in 2 cohorts (n=49-56; 7-8 per group). Mice were sorted into a total of five treatment groups. The mice of the control groups were wild type C57BL/10ScSnJ and the dmx strain C57BL/10ScSn-Dmdmdx/J. The animals were acclimatized upon arrival to the animal facility for 7 days, housed in cages with up to 5 mice per cage. During the study, 12-hour light/11-hour dark cycles were maintained. Room temperature was maintained between 20° C. and 23° C. Food and water were available ad libitum for the duration of the study. Mice were identified by ear tags. Randomization was done based on the average body weight of the cage. These cages were assigned randomly to treatment groups. Animals were monitored daily for changes in behavior. […]
All treatment compounds were administered via intraperitoneal (IP) injection, with exception of prednisolone that was delivered via oral syrup. […] Once the injection was delivered, the mouse was monitored for a couple of minutes for any adverse side effects. […] Once the complete treatment was delivered the mouse was placed back into its cage and monitored for a couple of minutes for any adverse side effects.
The body weight was measured weekly starting after acclimation of the animals to the facility and the beginning of the treatment (5 weeks of age). […]

[3] = mdx mice, 1.0 mg/kg (prednisolone oral syrup, deflazacort IP)
[4] = mdx mice, 1.0 mg/kg (prednisolone oral syrup, deflazacort IP), right EDL in Ringer's solution 25° C., mean ±SEM

| Compound | dose dependence of the maximum force generated by the muscle ([1]; mouse, in vivo) | maximum force generated by the muscle (EDL), related to body weight ([1]; mouse, in vivo, ip, 5 mg/kg) [mN/kg] | percentual improvement of maximum force in comparison to the untreated mdx mice control group (set as 100%) ([1]; mouse, in vivo, ip, 5 mg/kg) [%] | percentual improvement of maximum force in comparison to the untreated mdx mice control group (set as 100%) [1, 3] [%] | maximum force generated by the muscle (EDL), related to body weight [1, 4] [mN/kg] | difference in body weight (diminished increase) ([2]; from about week 6) | body weight increase over the treatment ([2]; weeks of age 5-10, starting at about week 6) |
| --- | --- | --- | --- | --- | --- | --- | --- |
| Nc1cccc2c(=O)[nH][nH]c(=O)c12.[Na] [5-amino-2,3-dihydro-1,4-phthalazinedione sodium salt] | dose-dependent improvement | 106.1±8.0 | 16.4 |  |  |  |  |
| CC(=O)OCC(=O)[C@@]12N=C(C)O[C@@H]1C[C@H]1[C@@H]3CCC4=CC(=O)C=C[C@]4(C)[C@H]3[C@@H](O)C[C@@]12C [deflazacort] |  |  |  | 6.2 | 96.8±5.2 |  |  |
| C[C@]12C=CC(=O)C=C1CC[C@@H]1[C@@H]2[C@@H](O)C[C@@]2(C)[C@H]1CC[C@]2(O)C(=O)CO [prednisolone] |  |  |  | 18.0 | 107.5±7.2 | about 7% | significantly diminished body weight increase |
